Reference: patent US6908922B2, “Linear cyclic ureas” (Les Laboratoires Servier, priority 1999, dated 2005)

Experiments:
Format in all cases: cell-based
[1] = test system: thoracic aorta rings of a Wistar rat; assay: Vascular protective effects with respect to endothelial dysfunction caused by an inhibitor of NOS (ACh relaxation of aortic rings in presence of LNA); details: LNA 3×10^−7M, difference in maximum ACh relaxation with/without product
Description: Under standard in vitro conditions, relaxation of aortic rings caused by acetylcholine (ACh), which relaxation is entirely dependent on the presence of endothelium, is the reflection of the production of NO (stimulated by ACh), which by diffusing to smooth muscle cells brings about arterial relaxation (Nature, 1980, 288, 373). The compounds of the invention were tested in respect of two models involving two different mechanisms implicated in the endothelial dysfunction observed in pathology: • the first model consists of causing inhibition of the relaxation due to ACh by blocking the enzymatic activity (endothelial NOS) responsible for the production of NO; • the second model consists of causing oxidative stress in vitro using an enzymatic system that generates O2^− (xanthine oxidase—XO and hypoxanthine—Hypo).
The thoracic aorta of a Wistar rat (325-375 g), anaesthetised by the intraperitoneal route using pentobarbital sodium (30 mg/kg), is removed and dissected into rings having a length of 3 mm. Each ring is suspended from an isometric tension sensor connected to a recording system and the initial tension applied is 2.5 g. The physiological solution used, which is thermostatically maintained at 37° C. and oxygenated (95% O2+5% CO2), comprises (in mM): NaCl 112.0; KCl 5.0; CaCl2 2.5; KH2PO4 1.0; MgSO4 1.2; NaHCO3 25.0; glucose 11.5; Ca-EDTA 0.016.
After a 90-minute stabilisation period, the preparations are contracted using phenylephrine (PHE 10^−6M) and relaxed by adding 10^−5M of acetylcholine in order to verify the integrity of the endothelial layer. If that is confirmed, the preparations are rinsed and a concentration of the product under test is added to the medium followed by 3×10^−7M of N^G-nitro-L-arginine (LNA). The preparations are again contracted using phenylephrine and, after 30 minutes, the relaxations due to acetylcholine (ACh-10^−8M to 10^−5M) are assessed in the presence of indomethacin (10^−5M).
The relaxation values are expressed as a percentage relative to the maximum contraction caused by PHE. […]

rat aortic rings = assay: Assessment of aortic production of cGMP stimulated by ACh in the presence of LNA (radioimmunoassay); details: compound at 10^−7M, 30-minute incubation; ACh 10^−5M 1 minute; LNA 3×10^−6M; isobutylmethylxanthine 10^−5M
Description: By diffusing to the smooth muscle cells, the NO produced by the endothelial cells activates soluble guanylate cyclase, which brings about an increase in cyclic GMP, which is responsible for relaxation.
The rat aortic rings are prepared as previously. The effects of 30-minute incubation of compounds of the invention at different concentrations are assessed on the production of cGMP stimulated by ACh (10^−5M-1 minute) in the presence of LNA (3×10^−6M). The said experiments are carried out in the presence of isobutylmethylxanthine (10^−5M) in order to avoid degradation of the cGMP by phosphodiesterases. The rings are frozen in liquid nitrogen and maintained at −80° C. until the assay is carried out. The cGMP content is assessed by radioimmunoassay and expressed in relation to the amount of proteins contained in the tissue (assay by the Bradford method).

[2] = test system: aortic rings of New Zealand rabbits; assay: Protective vascular effects with respect to endothelial dysfunction caused by a system generating O2^− (XO-Hypo), aortic rings; details: compound at 3×10^−8M; rabbit aortic rings; XO 3 mU/ml, Hypo 10^−4M

## O=C(NCCN1CCC(COc2ccccc2)CC1)N1CCc2ccccc21 [Example 35, N-{2-[4-(Phenoxymethyl)-1-piperidyl]ethyl}-1-indolinecarboxamide]
[1]; compound at 3×10^−8M
  inhibition of the endothelial dysfunction caused by LNA: 26%
[1]; compound at 10^−7M
  inhibition of the endothelial dysfunction caused by LNA: 29%
[1]; compound at 10^−8M
  inhibition of the endothelial dysfunction caused by LNA: 8%
Rat aortic rings
  increase in the production of cGMP stimulated by ACh in the presence of LNA: 28.1%
[2]
  inhibition of the endothelial dysfunction caused by the XO-Hypo combination: 17%
